Data: patent US4443436A, “C-20-Modified macrolide derivatives of the macrolide antibiotics tylosin, desmycosin, macrocin, and lactenocin” (Eli Lilly and Company, priority 1982, dated 1984)
Values after ≈ are worked out from the molar mass of the structure shown. Where two headings read alike, the source gives them in different places.

Experiments:
[1] = tested on: Staphylococcus aureus X1.1; assay: MIC, standard agar-dilution assay, Staphylococcus aureus X1.1; assay type: cell-based; settings: Staphylococcus aureus X1.1, agar dilution
[2] = tested on: Staphylococcus aureus V41; assay: MIC, standard agar-dilution assay, Staphylococcus aureus V41; assay type: cell-based
[3] = tested on: Staphylococcus aureus X400; assay: MIC, standard agar-dilution assay, Staphylococcus aureus X400; assay type: cell-based; settings: Staphylococcus aureus X400, methicillin-resistant strain, agar dilution
[4] = tested on: Staphylococcus aureus S13E; assay: MIC, standard agar-dilution assay, Staphylococcus aureus S13E; assay type: cell-based; settings: Staphylococcus aureus S13E; agar dilution
[5] = tested on: Staphylococcus epidermidis EPI1; assay: MIC, standard agar-dilution assay, Staphylococcus epidermidis EPI1; assay type: cell-based; settings: Staphylococcus epidermidis EPI1, agar dilution
[6] = tested on: Staphylococcus epidermidis EPI2; assay: MIC, standard agar-dilution assay, Staphylococcus epidermidis EPI2; assay type: cell-based
[7] = tested on: Streptococcus pyogenes C203; assay: MIC, standard agar-dilution assay, Streptococcus pyogenes C203; assay type: cell-based; settings: Streptococcus pyogenes C203, agar dilution
[8] = tested on: Streptococcus pneumoniae Park I; assay: microbe, parasite or virus in culture; assay type: cell-based
[9] = tested on: Streptococcus Group D X66; assay: MIC, standard agar-dilution assay, Streptococcus Group D X66; assay type: cell-based; settings: Streptococcus Group D X66, agar dilution
Streptococcus Group 9960 = assay: MIC, standard agar-dilution assay, Streptococcus Group 9960; assay type: cell-based; settings: Streptococcus Group 9960; agar dilution
[10] = tested on: Haemophilus influenzae Holt; assay: MIC, standard agar-dilution assay, Haemophilus influenzae Holt; assay type: cell-based; settings: Haemophilus influenzae Holt; ampicillin-sensitive strain; agar dilution
[11] = tested on: Haemophilus influenzae R252; assay: MIC, standard agar-dilution assay, Haemophilus influenzae R252; assay type: cell-based; settings: Haemophilus influenzae R252, ampicillin-resistant strain
Staphylococcus aureus = assay: MIC, broth-dilution microtiter test, Staphylococcus aureus; assay type: cell-based
From the text: (§1) The MIC's in Table X were obtained using conventional broth-dilution microtiter tests.

Streptococcus bovis 80 = assay: MIC, broth-dilution microtiter test, Streptococcus bovis 80; assay type: cell-based
From the text: as §1

[12] = tested on: Pasteurella multocida 17E; assay: MIC, broth-dilution microtiter test, Pasteurella multocida 17E; assay type: cell-based; settings: Pasteurella multocida 17E, bovine isolate, broth-dilution microtiter
From the text: as §1

[13] = tested on: Pasteurella multocida 60A; assay: MIC, broth-dilution microtiter test, Pasteurella multocida 60A; assay type: cell-based; settings: Pasteurella multocida 60A, avian isolate, broth-dilution microtiter
From the text: as §1

[14] = tested on: Pasteurella hemolytica 22C; assay: MIC, broth-dilution microtiter test, Pasteurella hemolytica 22C; assay type: cell-based; settings: Pasteurella hemolytica 22C, broth-dilution microtiter
From the text: as §1

Mycoplasma gallisepticum = assay: MIC, broth-dilution microtiter test, Mycoplasma gallisepticum; assay type: cell-based
From the text: as §1

Mycoplasma synoviae = assay: MIC, broth-dilution microtiter test, Mycoplasma synoviae; assay type: cell-based
From the text: as §1

Mycoplasma hyorhinis = assay: MIC, broth-dilution microtiter test, Mycoplasma hyorhinis; assay type: cell-based
From the text: as §1

Mycoplasma hyopneumoniae = assay: MIC, broth-dilution microtiter test, Mycoplasma hyopneumoniae; assay type: cell-based; settings: Mycoplasma hyopneumoniae, broth-dilution microtiter
From the text: as §1

[15] = tested on: Streptococcus pyogenes C203; assay: In vivo protection of mice experimentally infected with S. pyogenes C203; settings: mice, doses given 1 and 4 hours post-infection; for ED50: Streptococcus pyogenes
Procedure: The C-20 modified derivatives of this invention have shown in vivo antimicrobial activity against experimentally-induced infections in laboratory animals. When two doses of test compound were administered to mice experimentally infected with S. pyogenes C203, the activity observed was measured as an ED50 value [effective dose in mg/kg to protect 50% of the test animals: see Warren Wick, et al., J. Bacteriol. 81, 233-235 (1961)].

Pasteurella multocida [16] = assay: Subcutaneous treatment of Pasteurella multocida-infected chicks; assay type: in vivo, one-day-old chicks; settings: 30 mg/kg × 2, 1 and 4 hours post-challenge
Procedure: (§2) Many of the C-20 modified derivatives of this invention have also shown in vivo antibacterial activity against infections induced by gram-negative bacteria. Tables XII and XIII summarize the results of tests in which illustrative compounds were evaluated against Pasteurella infection in one-day-old chicks. The compounds were administered parenterally or orally after challenge of the chicks with Pasteurella multocida (0.1 ml of a 10^-4 dilution of a twenty-hour tryptose broth culture of an avian P. multocida given subcutaneously). In these tests, unless indicated otherwise, all non-medicated infected chicks died within 24 hours of Pasteurella challenge. In the tests summarized in Table XII the compounds were administered by subcutaneous injection at a dosage of 30 mg/kg, 1 and 4 hours post-challenge of the chicks with P. multocida. In the test summarized in Table XIII the compounds were administered by gavage at 1 and 5 hours post-challenge of the chicks with P. multocida.

Pasteurella multocida [17] = assay: Oral (gavage) treatment of Pasteurella multocida-infected chicks; assay type: in vivo, one-day-old chicks
Procedure: as §2

[18] = Staphylococcus aureus V41, penicillin-resistant strain, agar dilution
[19] = Staphylococcus epidermidis EPI2, agar dilution
[20] = Streptococcus pneumoniae Park I, agar dilution
[21] = Streptococcus bovis 80, broth-dilution microtiter
[22] = Mycoplasma gallisepticum, broth-dilution microtiter
[23] = Mycoplasma synoviae, broth-dilution microtiter
[24] = Mycoplasma hyorhinis, broth-dilution microtiter

Q: With `CCOC(=O)NN(CCC1CC(C)C(=O)C=CC(C)=CC(COC2OC(C)C(O)C(OC)C2OC)C(CC)OC(=O)CC(O)C(C)C1OC1OC(C)C(O)C(N(C)C)C1O)C(=O)OCC` (stereo not drawn) [Compound 45, 20-DH-DO-20-[N-(Ethoxycarbonyl)-N-(ethoxycarbonylamino)]aminodesmycosin] as the compound, how does the MIC [1] read?
A: 0.5 µg/mL (≈ 0.536 µM)

Q: What about the MIC [2, 18] of the same compound?
A: 0.5 µg/mL (≈ 0.536 µM)

Q: What about the MIC [3] of the same compound?
A: 1 µg/mL (≈ 1.07 µM)

Q: And the MIC [4]?
A: 0.5 µg/mL (≈ 0.536 µM)

Q: What about the MIC [5] of the same compound?
A: 0.5 µg/mL (≈ 0.536 µM)

Q: What about the MIC [6, 19] of the same compound?
A: 0.25 µg/mL (≈ 0.268 µM)

Q: And the MIC [7]?
A: 2 µg/mL (≈ 2.15 µM)

Q: What about the MIC [8, 20] of the same compound?
A: 0.5 µg/mL (≈ 0.536 µM)

Q: And the MIC [9]?
A: 16 µg/mL (≈ 17.2 µM)

Q: And the MIC (Streptococcus Group 9960)?
A: 8 µg/mL (≈ 8.58 µM)

Q: And the MIC [10]?
A: 32 µg/mL (≈ 34.3 µM)

Q: What about the MIC ([11]; agar dilution) of the same compound?
A: 32 µg/mL (≈ 34.3 µM)

Q: And the MIC (Staphylococcus aureus; broth-dilution microtiter)?
A: 1.56 µg/mL (≈ 1.67 µM)

Q: What about the MIC (Streptococcus bovis 80; [21]) of the same compound?
A: 12.5 µg/mL (≈ 13.4 µM)

Q: What about the MIC [12] of the same compound?
A: 25 µg/mL (≈ 26.8 µM)

Q: And the MIC [13]?
A: 25 µg/mL (≈ 26.8 µM)

Q: And the MIC [14]?
A: 50 µg/mL (≈ 53.6 µM)

Q: What about the MIC (Mycoplasma gallisepticum; [22]) of the same compound?
A: 0.39 µg/mL (≈ 0.418 µM)

Q: What about the MIC (Mycoplasma synoviae; [23]) of the same compound?
A: 6.25 µg/mL (≈ 6.71 µM)

Q: And the MIC (Mycoplasma hyorhinis; [24])?
A: -- (Not active at 50 mcg/ml, the highest level tested)

Q: What about the MIC (Mycoplasma hyopneumoniae) of the same compound?
A: 6.25 µg/mL (≈ 6.71 µM)

Q: And the “ED50, Oral” value ([15]; oral)?
A: > 50 mg/kg × 2

Q: What about the “ED50, Subcutaneous” value ([15]; subcutaneous) of the same compound?
A: 2.1 mg/kg × 2

Q: What about the “Number of Deaths/Number Treated” value (Pasteurella multocida [16]) of the same compound?
A: 9/10

Q: Which MIC [1] does the source give for `CCC1OC(=O)CC(O)C(C)C(OC2OC(C)C(O)C(N(C)C)C2O)C(CCS(=O)(=O)c2ccc(C)cc2)CC(C)C(=O)C=CC(C)=CC1COC1OC(C)C(O)C(OC)C1OC` (stereo not drawn) [Compound 46, 20-DH-DO-20-(p-Toluenesulfonyl)desmycosin] here?
A: 0.25 µg/mL (≈ 0.274 µM)

Q: What about the MIC [2, 18] of the same compound?
A: 0.25 µg/mL (≈ 0.274 µM)

Q: And the MIC [3]?
A: 0.25 µg/mL (≈ 0.274 µM)

Q: What about the MIC [4] of the same compound?
A: 0.25 µg/mL (≈ 0.274 µM)

Q: What about the MIC [5] of the same compound?
A: 0.25 µg/mL (≈ 0.274 µM)

Q: What about the MIC [6, 19] of the same compound?
A: 0.12 µg/mL (≈ 0.132 µM)

Q: What about the MIC [7] of the same compound?
A: 1 µg/mL (≈ 1.1 µM)

Q: And the MIC [8, 20]?
A: 1 µg/mL (≈ 1.1 µM)

Q: And the MIC [9]?
A: 8 µg/mL (≈ 8.77 µM)

Q: And the MIC (Streptococcus Group 9960)?
A: 8 µg/mL (≈ 8.77 µM)

Q: And the MIC [10]?
A: 4 µg/mL (≈ 4.39 µM)

Q: What about the MIC ([11]; agar dilution) of the same compound?
A: 8 µg/mL (≈ 8.77 µM)

Q: And the MIC (Staphylococcus aureus; broth-dilution microtiter)?
A: 0.39 µg/mL (≈ 0.428 µM)

Q: And the MIC (Streptococcus bovis 80; [21])?
A: 6.25 µg/mL (≈ 6.85 µM)

Q: And the MIC [12]?
A: 12.5 µg/mL (≈ 13.7 µM)

Q: What about the MIC [13] of the same compound?
A: 12.5 µg/mL (≈ 13.7 µM)

Q: What about the MIC [14] of the same compound?
A: 12.5 µg/mL (≈ 13.7 µM)

Q: And the MIC (Mycoplasma gallisepticum; [22])?
A: 0.19 µg/mL (≈ 0.208 µM)

Q: And the MIC (Mycoplasma synoviae; [23])?
A: 0.78 µg/mL (≈ 0.855 µM)

Q: And the MIC (Mycoplasma hyorhinis; [24])?
A: 50 µg/mL (≈ 54.8 µM)

Q: And the MIC (Mycoplasma hyopneumoniae)?
A: 12.5 µg/mL (≈ 13.7 µM)

Q: What about the “ED50, Oral” value ([15]; oral) of the same compound?
A: > 50 mg/kg × 2

Q: And the “ED50, Subcutaneous” value ([15]; subcutaneous)?
A: 4.2 mg/kg × 2

Q: And the “Number of Deaths/Number Treated” value (Pasteurella multocida [16])?
A: 0/10

Q: Which MIC ([1]; read-out: MIC) does the source give for `CCOC(=O)C1CSC(CC2CC(C)C(=O)C=CC(C)=CC(COC3OC(C)C(O)C(OC)C3OC)C(CC)OC(=O)CC(O)C(C)C2OC2OC(C)C(O)C(N(C)C)C2O)N1` (stereo not drawn) [Compound 76] here?
A: 0.51 µg/mL (≈ 0.565 µM)

Q: What about the MIC ([2]; Staphylococcus aureus, V41) of the same compound?
A: 0.5 µg/mL (≈ 0.554 µM)

Q: What about the MIC ([3]; read-out: MIC) of the same compound?
A: 2400 µg/mL (≈ 2660 µM)

Q: And the MIC ([5]; read-out: MIC)?
A: 0.51 µg/mL (≈ 0.565 µM)

Q: What about the MIC ([6]; Staphylococcus epidermidis, EPI2) of the same compound?
A: 0.25 µg/mL (≈ 0.277 µM)

Q: And the MIC ([7]; read-out: MIC)?
A: 0.53 µg/mL (≈ 0.587 µM)

Q: And the MIC ([8]; Streptococcus pneumoniae)?
A: 0.25 µg/mL (≈ 0.277 µM)

Q: And the MIC ([9]; read-out: MIC)?
A: 466 µg/mL (≈ 516 µM)

Q: What about the MIC ([11]; read-out: MIC) of the same compound?
A: 3250 µg/mL (≈ 3600 µM)

Q: And the MIC (Staphylococcus aureus)?
A: 0.78 µg/mL (≈ 0.864 µM)

Q: And the MIC (Streptococcus bovis 80; Streptococcus equinus, 80)?
A: 3.12 µg/mL (≈ 3.45 µM)

Q: What about the MIC ([12]; read-out: MIC) of the same compound?
A: 25 µg/mL (≈ 27.7 µM)

Q: And the MIC ([13]; read-out: MIC)?
A: 25 µg/mL (≈ 27.7 µM)

Q: And the MIC ([14]; read-out: MIC)?
A: 25 µg/mL (≈ 27.7 µM)

Q: What about the MIC (Mycoplasma gallisepticum; Mycoplasmoides gallisepticum) of the same compound?
A: 1.56 µg/mL (≈ 1.73 µM)

Q: What about the MIC (Mycoplasma synoviae; Mycoplasmopsis synoviae) of the same compound?
A: 3.12 µg/mL (≈ 3.45 µM)

Q: And the MIC (Mycoplasma hyorhinis; Mycoplasma)?
A: 50 µg/mL (≈ 55.4 µM)

Q: And the MIC (Mycoplasma hyopneumoniae; Mesomycoplasma hyopneumoniae, read-out: MIC)?
A: 0.19 µg/mL (≈ 0.21 µM)

Q: And the ED50 ([15]; C203, sc, subcutaneous, read-out: ED50, Subcutaneous)?
A: 4.8 mg/kg

Q: And the ED50 ([15]; C203, oral, read-out: ED50, Oral)?
A: 17 mg/kg

Q: What about the “Number of Deaths/Number Treated” value (Pasteurella multocida [16]) of the same compound?
A: 3/10

Q: What about the “Number of Deaths/Number tested” value (Pasteurella multocida [17]; 0.5 g/gal equivalent) of the same compound?
A: 3/10

Q: And the “Number of Deaths/Number tested” value (Pasteurella multocida [17]; 1.0 g/gal equivalent, 13/20 infected nonmedicated chicks died in this test)?
A: 4/10

Q: What about the “Number of Deaths/Number tested” value (Pasteurella multocida [17]; 2.0 g/gal equivalent, 11/20 infected nonmedicated chicks died in this test) of the same compound?
A: 4/10
